Converted amounts (≈) assume the structure as drawn.
Legend:
[1] = Urinary excretion in rats, 24 h (HPLC); assay type: in vivo, CFY male rats; details: rat urine
Procedure: (§1) To the resorption tests CFY male rats weighing 170-200 g were used. After a 16-hour fasting period, Ipriflavon in a dose of 25 mg/kg (group A), Ipriflavon-β-cyclodextrin inclusion complex prepared according to Example 1 (group B) and Ipriflavon-β-cyclodextrin mixture (group C)--both containing the β-cyclodextrin in equimolar ratio to the active ingredient--were administered, thereafter rat-food and water were given "ad libitum" to the animals.
(§2) The materials to be tested were mixed for 5 minutes in 2 ml of 1% methylcellulose solution and administered by the aid of a stomach tube. The plasma samples were collected 10, 30 minutes and 1, 2 and 4 hours after the treatment using mortal haemorrhage after transecting the Vena femoralis of the animals anasthesied with ether. The blood samples were charged into heparinized tubes, centrifuged, nutsch-filtered and stored deep-freezed, in vial until further use.
In order to collect urinary samples, after treatment the animals were placed into individual metabolism vessel and urine and faeces were separately collected for 24 hours. The urinary samples were stored deep-freezed until further use. The concentration of the unchanged Ipriflavon and its main metabolite (7-hydroxy-isoflavon) in the urinary and the plasma samples was followed by HPLC. […]

[2] = Solubility of Ipriflavon in aqueous cyclodextrin solutions (4 days agitation, 25° C., photometric); assay type: physicochemical
Procedure: One of the evidence of the formation of inclusion complex between Ipriflavon and cyclodextrin is that the cyclodextrin increases the solubility of Ipriflavon in aqueous solutions. In order to determine this property, 10 mg of Ipriflavon, cyclodextrin in different amounts and 5 ml of distilled water were charged into 10 ml test tubes. After closing, the tubes were agitated for 4 days at 25° C. at 325 rpm, thereafter the samples were filtered on a G4 glass-filter and the filtrates were photometrically analysed in 50% aqueous ethanol solution.

physchem = assay type: physicochemical; details: for Concentration of dissolved Ipriflavon: 37° C.
Procedure: To carry out the dissolution tests 250 ml of distilled water were charged into a 500 ml flask and heated to 37° C. Thereafter the product in an amount corresponding to 50 mg of active ingredient was added then the suspension thus obtained was stirred at 1000 rpm using a magnetic stirrer. At fixed intervals 2-6 ml of samples were taken and filtered on glass-filter and after diluting, the filtrates were measured photometrically in an 1:1 mixture of water:ethanol.

[3] = Resorption test in rats: plasma level of unchanged Ipriflavon (HPLC); assay type: in vivo, CFY male rats; details: rat
Procedure: as §1, §2
In order to collect urinary samples, after treatment the animals were placed into individual metabolism vessel and urine and faeces were separately collected for 24 hours. The urinary samples were stored deep-freezed until further use. The concentration of the unchanged Ipriflavon and its main metabolite (7-hydroxy-isoflavon) in the urinary and the plasma samples was followed by HPLC.
To carry out the HPLC, liquid chromatography of typ RP-18 and LiChrosorb reverse phase column (grain size in case of plasma sample: 10 μm and in case of urinary samples: 5 μm) were used. Flow velocity of eluent: 1.5 ml/min, wave length of UV detector: 254 nm, paper-velocity: 0.2 cm/min.
In case of plasma samples a mixture of 0.05M acetate buffer (pH=3):acetonitrile=60:40 and in case of urinary samples a mixture of acetate buffer:acetonitril=55:45 were used as eluent. The internal standard was ethanolic solution of 2-methyl-7-methoxy-4'-nitro-isoflavon (100 μg/ml) and to the calibration, solutions comprising 100 μg/ml and 10 μg/ml of 7-hydroxy-isoflavon in methanol were used.
To analyse the plasma samples, to 1 ml of plasma 1 ml acetate-buffer (pH=5) and β-glucuronidase (arylsulfonase) enzyme (100 FU) diluted to 10-fold with 10 μl of distilled water were added and incubated at 37° C. for 24 hours. After incubation, 50 μl of 2N NaOH were added and the mixture was extracted with benzene and centrifuged. The organic phase was separated, the aqueous phase was made acidic with […] of 1N HCl, and after adding 50 μl of internal standard solution it was repeatedly extracted with 8 ml benzene. The organic phase was centrifuged,evaporated, the residue was dissolved in 100 μl of eluent and 50 μl of this solution were injected and measured.
Equation of the calibration curve: y=8.2x-0.08; correlation coefficient: 0.9999.
In Table IV the concentration values of unchanged Ipriflavon and in Table V the concentration values of the main metabolite determined in the blood of animals are shown. To group A Ipriflavon per se, to group B the inclusion complex according to the invention and to group C the mixture of Ipriflavon and β-cyclodextrin were administered.

[4] = design: species or system CFY male rats; details: rat, in vivo, po
Procedure: as §1
The materials to be tested were mixed for 5 minutes in 2 ml of 1% methylcellulose solution and administered by the aid of a stomach tube. The plasma samples were collected 10, 30 minutes and 1, 2 and 4 hours after the treatment using mortal haemorrhage after transecting the Vena femoralis of the animals anasthesied with ether. […]
To analyse the plasma samples, to 1 ml of plasma 1 ml acetate-buffer (pH=5) and β-glucuronidase (arylsulfonase) enzyme (100 FU) diluted to 10-fold with 10 μl of distilled water were added and incubated at 37° C. for 24 hours. […] The organic phase was centrifuged,evaporated, the residue was dissolved in 100 μl of eluent and 50 μl of this solution were injected and measured. […]
In Table IV the concentration values of unchanged Ipriflavon and in Table V the concentration values of the main metabolite determined in the blood of animals are shown. […]

[5] = Resorption test in rats: plasma level of unchanged Ipriflavon (HPLC); design: species or system CFY male rats; details: rat, in vivo, po, 25 mg/kg, 1440 min
[6] = design: species or system CFY male rats; details: rat, in vivo, po, 25 mg/kg, 1440 min
[7] = cited from earlier work
[8] = cited from earlier work; remark: listed apart in the source
[9] = cited from earlier work; remark: listed apart in the source
[10] = in vivo, po, 25 mg/kg, Plasma-level of unchanged Ipriflavon

SMILES: O=c1c(-c2ccccc2)coc2cc(O)ccc12 [7-hydroxy-isoflavon]
- quantity of main metabolite of the total quantity of the metabolite [1]: 50-55%

SMILES: CC(C)Oc1ccc2c(=O)c(-c3ccccc3)coc2c1 [Ipriflavon, 7-isopropoxy-isoflavon]
- solubility at 96 h ([2]; 12% aqueous alpha-cyclodextrin, solubility of Ipriflavon in α-cyclodextrin solution): 20 to 22 µg/mL (≈ 71.3 to 78.5 µM)
- increase of solubility in DIMEB ([2]; 15% DIMEB): 1770 -fold
- increase of solubility in TRIMEB ([2]; 15% TRIMEB): 300 -fold
- solubility at 96 h ([2]; 15% aqueous dimeb, solubility in DIMEB solution): 1700 to 2000 µg/mL (≈ 6060 to 7130 µM)
- solubility at 96 h ([2]; 15% aqueous trimeb, solubility in TRIMEB solution): 440 µg/mL (≈ 1570 µM)
- solubility at 96 h ([2]; aqueous α-cd 11 mg/ml, Solubility of Ipriflavon): 4.12 µg/mL (≈ 14.7 µM)
- solubility at 96 h ([2]; aqueous α-cd 13 mg/ml, Solubility of Ipriflavon): 4.68 µg/mL (≈ 16.7 µM)
- solubility at 96 h ([2]; aqueous α-cd 15 mg/ml, Solubility of Ipriflavon): 5.08 µg/mL (≈ 18.1 µM)
- solubility at 96 h ([2]; aqueous α-cd 20 mg/ml, Solubility of Ipriflavon): 6.1 µg/mL (≈ 21.8 µM)
- solubility at 96 h ([2]; aqueous α-cd 30 mg/ml, Solubility of Ipriflavon): 8.19 µg/mL (≈ 29.2 µM)
- solubility at 96 h ([2]; aqueous α-cd 40 mg/ml, Solubility of Ipriflavon): 9.63 µg/mL (≈ 34.4 µM)
- solubility at 96 h ([2]; aqueous α-cd 50 mg/ml, Solubility of Ipriflavon): 10.6 µg/mL (≈ 37.8 µM)
- solubility at 96 h ([2]; aqueous α-cd 70 mg/ml, Solubility of Ipriflavon): 14.8 µg/mL (≈ 52.7 µM)
- solubility at 96 h ([2]; aqueous α-cd 90 mg/ml, Solubility of Ipriflavon): 18.2 µg/mL (≈ 65.1 µM)
- solubility at 96 h ([2]; aqueous α-cd 100 mg/ml, Solubility of Ipriflavon): 21.6 µg/mL (≈ 77.2 µM)
- solubility at 96 h ([2]; aqueous α-cd 110 mg/ml, Solubility of Ipriflavon): 19 µg/mL (≈ 67.9 µM)
- solubility at 96 h ([2]; aqueous α-cd 120 mg/ml, Solubility of Ipriflavon): 23.6 µg/mL (≈ 84.4 µM)
- solubility at 96 h ([2]; aqueous β-cd 1 mg/ml, Solubility of Ipriflavon): 2.52 µg/mL (≈ 8.99 µM)
- solubility at 96 h ([2]; aqueous β-cd 3 mg/ml, Solubility of Ipriflavon): 7.03 µg/mL (≈ 25.1 µM)
- solubility at 96 h ([2]; aqueous β-cd 5 mg/ml, Solubility of Ipriflavon): 11.4 µg/mL (≈ 40.8 µM)
- solubility at 96 h ([2]; aqueous β-cd 7 mg/ml, Solubility of Ipriflavon): 15.9 µg/mL (≈ 56.8 µM)
- solubility at 96 h ([2]; aqueous β-cd 9 mg/ml, Solubility of Ipriflavon): 19.5 µg/mL (≈ 69.6 µM)
- solubility at 96 h ([2]; aqueous β-cd 11 mg/ml, Solubility of Ipriflavon): 15.2 µg/mL (≈ 54.3 µM)
- solubility at 96 h ([2]; aqueous β-cd 13 mg/ml, Solubility of Ipriflavon): 15.5 µg/mL (≈ 55.2 µM)
- solubility at 96 h ([2]; aqueous β-cd 15 mg/ml, Solubility of Ipriflavon): 15.8 µg/mL (≈ 56.2 µM)
- solubility at 96 h ([2]; aqueous β-cd 20 mg/ml, Solubility of Ipriflavon): 13.5 µg/mL (≈ 48 µM)
- solubility at 96 h ([2]; aqueous β-cd 30 mg/ml, Solubility of Ipriflavon): 7.59 µg/mL (≈ 27.1 µM)
- solubility at 96 h ([2]; aqueous β-cd 40 mg/ml, Solubility of Ipriflavon): 6.2 µg/mL (≈ 22.1 µM)
- solubility at 96 h ([2]; aqueous β-cd 50 mg/ml, Solubility of Ipriflavon): 5.44 µg/mL (≈ 19.4 µM)
- solubility at 96 h ([2]; aqueous β-cd 70 mg/ml, Solubility of Ipriflavon): 6.08 µg/mL (≈ 21.7 µM)
- solubility at 96 h ([2]; aqueous β-cd 90 mg/ml, Solubility of Ipriflavon): 6.93 µg/mL (≈ 24.7 µM)
- solubility at 96 h ([2]; aqueous β-cd 100 mg/ml, Solubility of Ipriflavon): 6.64 µg/mL (≈ 23.7 µM)
- solubility at 96 h ([2]; aqueous β-cd 110 mg/ml, Solubility of Ipriflavon): 5.98 µg/mL (≈ 21.3 µM)
- solubility at 96 h ([2]; aqueous β-cd 120 mg/ml, Solubility of Ipriflavon): 5.66 µg/mL (≈ 20.2 µM)
- solubility at 96 h ([2]; aqueous γ-cd 11 mg/ml, Solubility of Ipriflavon): 2.02 µg/mL (≈ 7.21 µM)
- solubility at 96 h ([2]; aqueous γ-cd 13 mg/ml, Solubility of Ipriflavon): 2.05 µg/mL (≈ 7.31 µM)
- solubility at 96 h ([2]; aqueous γ-cd 15 mg/ml, Solubility of Ipriflavon): 2.16 µg/mL (≈ 7.71 µM)
- solubility at 96 h ([2]; aqueous γ-cd 20 mg/ml, Solubility of Ipriflavon): 2.38 µg/mL (≈ 8.49 µM)
- solubility at 96 h ([2]; aqueous γ-cd 30 mg/ml, Solubility of Ipriflavon): 2.74 µg/mL (≈ 9.77 µM)
- solubility at 96 h ([2]; aqueous γ-cd solution, Solubility of Ipriflavon): 3.26 µg/mL (≈ 11.6 µM)
- solubility at 96 h ([2]; beta-cyclodextrin solution, constant solubility value (solubility limit of the solid inclusion complex in excess Ipriflavon)): 6 µg/mL (≈ 21.4 µM)
- solubility at 96 h ([2]; beta-cyclodextrin solution, solubility of Ipriflavon in β-cyclodextrin solution): 16 to 20 µg/mL (≈ 57.1 to 71.3 µM)
- solubility at 96 h ([2]; distilled water, water, solubility of Ipriflavon in distilled water): 1 to 2 µg/mL (≈ 3.57 to 7.13 µM)
- increase of solubility in β-cyclodextrin solution vs distilled water ([2]; β-cyclodextrin, depending on concentration): ≤ 15 -fold
- increase of solubility in γ-cyclodextrin solution ([2]; γ-cyclodextrin): 3 -fold
- Concentration of dissolved Ipriflavon (physchem; 1 min, distilled water): 435 ng/mL
- Concentration of dissolved Ipriflavon (physchem; 2 min, distilled water): 327 ng/mL
- Concentration of dissolved Ipriflavon (physchem; 3 min, distilled water): 401 ng/mL
- Concentration of dissolved Ipriflavon (physchem; 5 min, distilled water): 507 ng/mL
- Concentration of dissolved Ipriflavon (physchem; 10 min, distilled water): 882 ng/mL
- Concentration of dissolved Ipriflavon (physchem; 15 min, distilled water): 1123 ng/mL
- Concentration of dissolved Ipriflavon (physchem; 20 min, distilled water): 1197 ng/mL
- Concentration of dissolved Ipriflavon (physchem; 30 min, distilled water): 1423 ng/mL
- Concentration of dissolved Ipriflavon (physchem; 40 min, distilled water): 1508 ng/mL
- Concentration of dissolved Ipriflavon (physchem; 60 min, distilled water): 1621 ng/mL
- Concentration of dissolved Ipriflavon (physchem; 90 min, distilled water): 1525 ng/mL
- Concentration of dissolved Ipriflavon (physchem; 120 min, distilled water): 1482 ng/mL
- solubility (physchem; distilled water, water): ~1.5 µg/mL (≈ 5.35 µM)
- time to reach the saturation value (physchem; free active ingredient): 40 to 50 min
- Plasma-level of unchanged Ipriflavon ([3]; in vivo, po, 25 mg/kg, 10.2 min): 0 µg/mL
- Plasma-level of unchanged Ipriflavon ([3]; in vivo, po, 25 mg/kg, 30 min): 0 µg/mL
- Plasma-level of unchanged Ipriflavon ([3]; in vivo, po, 25 mg/kg, 60 min): 0 µg/mL
- Plasma-level of unchanged Ipriflavon ([3]; in vivo, po, 25 mg/kg, 120 min): 0 µg/mL
- Plasma-level of unchanged Ipriflavon ([3]; in vivo, po, 25 mg/kg, 2 h): 0.095 µg/mL
- Plasma-level of unchanged Ipriflavon ([3]; in vivo, po, 25 mg/kg, 240 min): 0 µg/mL
- concentration at 2 h [3, 10]: 78 ng/mL
- concentration at 4 h [3, 10]: 41 ng/mL
- detection of unchanged Ipriflavon in plasma ([3]; p.o.): can be detected only in few periods (at 2 and 4 hours)
- plasma level of main metabolite [4]: 200 to 1000 ng/mL
- Plasma-level of unchanged Ipriflavon [5]: 0 µg/mL
- Plasma-level of main metabolite (7-hydoxy-isoflavon) [6]: 0 µg/mL
- solubility in water [7]: 1 to 2 µg/mL
- HPLC analysis of the blood ([8]; beagle dogs): metabolites thereof (7-hydroxy-isoflavon as main metabolite) appear in the blood
- radioactive material administered discharged with the urine ([8]; dog, in vivo): 12%
- resorption of the main metabolite ([9]; dog, in vivo, po): 152 ng·h/mL
- Ipriflavon in the blood ([9]; dogs, oral): cannot be detected in the blood

Reference: patent publication US5043326A, “Inclusion complex of 7-isopropoxy-isoflavon formed with cyclodextrin, the preparation thereof and pharmaceutical compositions containing these compounds as active ingredients” (priority 1985, dated 1991)
